Measurements as given in patent publication US20230248744A1, “25-HYDROXYVITAMIN D2 AND/OR D3 FOR USE IN OBESITY” (CARBOGEN AMCIS B.V., priority 2020, published 2023).

Assay: Calculated total uptake into blood and deposition of vitamin D3 from the blood level curves (FIG. 6)
Assay type: in vivo, human
Conditions: for amount of vitamin D3 deposited in the first 24 hours: assuming a total blood volume of 5 liters
Source text: FIG. 6: The upper curves show the calculated total amounts of vitamin D3 arriving in blood of malabsorptive, obese and normal individuals. The lower curves show the experimental blood levels of vitamin D3 expressed in ng/mL of blood. The upper curves are as well expressed in ng/mL of blood, disregarding differing total blood volumes for malabsorptive, obese and normal individuals.
In order to further analyze the results, the shape of the concentration/time-curves describing the observed average blood levels of vitamin D3 was used to approximately calculate its total uptake into blood after dosage. The calculation was based on the assumptions compiled in the comments regarding FIG. 6. Metabolism in terms of the appearance of 25(OH)D3 which was experimentally determined in parallel to vitamin D3 can thereby be regarded as part of the immediately disappearing percentage of the total uptake into blood, and it is reasonable to assume that there is no other relevant metabolic step in this early phase, which has to be taken into account.
FIG. 6 presents the accordingly calculated total uptake and the experimentally determined levels of vitamin D3 for the first 24 hours after dosing. The difference between the upper (calculated) and the lower (experimental) curve represents the sum of metabolism and deposition. Herein the assumption is made that the elimination can be disregarded, because as known to the skilled person there is essentially no elimination of non-metabolized vitamin D3 from blood into urine. Metabolism in the first 24 hours results in all three cases (viz., malabsorptive, obese, and normal subjects) in the consumption of about 2 to 5 ng/mL, viz. a small part of the mentioned calculated difference (compare FIG. 7). No correction relating to said consumption seems necessary for determining the metabolite's observed concentration because the metabolite is rapidly forming a DBP-complex, characterized by a long half-life. However, the fact that the 25(OH)D3 formed must be determined as difference to baseline adds an element of uncertainty and the assumption that no more than a minor part of the 25(OH)D3 formed in this phase may not be absolutely to the point.
wherein the same correction regarding metabolism, as described above, was used for the obese and for the normal individuals, viz. 1.5 ng/mL at 15 hours and 3.5 ng/mL at 24 hours, respectively. These values come from FIG. 7B and are charged with a significant uncertainty—due to the significant experimental error in the early part of the respective curves. But they make sense, if inspecting the subsequent increase which can be more reliably determined. […]
The following relates to the coverage of the surface of adipocytes with vitamin D3. […] A homogenous cell diameter of 50 μm was determined to deliver about the same overall cell-surface one calculates by working with the rather wide experimental distribution of cell sizes as reported by Karin G. Stenkula et al. Thereby it was in the sense of a model consideration assumed that cubes containing large lipid droplet cubes can be used to describe the cells' shape (in other words: cubes of an edge-length of 50 μm enclosing cubes of about the same size were determined to represent a reasonable model for the description of the combined surface of the variable size cells' with their lipid droplets). […]

## C=C1CC[C@H](O)C/C1=C/C=C1\CCC[C@]2(C)[C@@H]([C@H](C)CCCC(C)C)CC[C@@H]12 [vitamin D3, cholecalciferol]
After 2½ days, from difference to Cmax and differing blood volumes
  R, deposition in fatty tissues in high BMI versus low BMI subjects: 1.05 times
Healthy obese subjects
  amount of vitamin D3 deposited in the first 24 hours: 92.5 µg
Low BMI group, after 2½ days
  deposition of vitamin D3: ~7400 I.U.
Normal subjects
  amount of vitamin D3 deposited in the first 24 hours: 62.5 µg
Time point of 15 hours
  deposition in healthy obese versus normal low BMI subjects: 1.5 times
